Data on 6 molecules can be found in patent US20070134733A1, “Raman signature probes and their use in the detection and imaging of molecular processes and structures” (Parallax Biosystems, Inc., priority 2003, published 2007).

For this experiment, the target named is T1, NADH-dependent enoyl acyl carrier reductase (FabI) (Escherichia coli, UniProt P0AEK4).
T1 construct: made in house; host or cells: recombinant bacteria (strain from Dr. Charles Rock, St. Jude Children's Research Hospital)
Briefly: FabI enzyme inhibition assay (NADH consumption, absorbance at 340 nm). To be noted: purified HIS-tagged FabI enzyme, NADH and substrate (e.g. Malonyl CoA or Crotonyl CoA). The class given is biochemical, bacteria. From the text: Prior to using the potential RSP compounds as probes to detect bacteria the modified compounds will be tested for their ability to inhibit FabI. As shown with numerous studies that have explored the structure activity relationship of other FabI inhibitor analogs, there is a good correlation between the ability of a compound to inhibit the enzyme and its affinity towards the enzyme (Seefeld et al., Bioorg. Med. Chem. Lett. 11 (2001) 2061-2065). Recombinant bacteria expressing a HIS-tagged FabI protein are available from Dr. Charles Rock at St. Jude Children's Research Hospital in Memphis Tenn. The overexpressed protein is readily purified as a bioactive enzyme using conventional Ni^2+ chromatographic methods (Heath & Rock, J. Biol. Chem. 270 (1995) 26538-26542). Enzyme assays will be performed as described by Bergler et al. (J. Biol. Chem. 269 (1994) 5493-5496). Briefly, purified HIS-tagged FabI enzyme is added to a reaction containing NADH and an appropriate substrate (e.g. Malonyl CoA or Crotonyl CoA). The reductase activity is assayed by monitoring the decrease in absorbance at 340 nm due to the consumption of NADH. The inhibitory activity of all RSPs will be compared with Compound 1.

T1 sequence (P0AEK4 whole entry): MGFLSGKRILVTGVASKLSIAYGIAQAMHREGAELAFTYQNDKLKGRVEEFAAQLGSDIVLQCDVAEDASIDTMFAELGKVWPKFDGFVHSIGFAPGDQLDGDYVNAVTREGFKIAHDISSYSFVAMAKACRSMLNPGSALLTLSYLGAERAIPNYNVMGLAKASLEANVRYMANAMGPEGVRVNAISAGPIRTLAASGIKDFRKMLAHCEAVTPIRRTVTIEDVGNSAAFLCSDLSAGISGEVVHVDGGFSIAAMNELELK

As usually defined, the EC50 is the concentration at which the effect is half-maximal. Low readings indicate a more potent agent, high ones a less potent agent. As to `CC#CCn1c2c(c3ccccc31)CCN(C(=O)c1ccc(Cl)cc1)C2` [Compound 1D], the response was half-maximal at 6.01 µM (EC50).
In the case of `N#Cc1ccc(Cn2c3c(c4ccccc42)CCN(C(=O)c2ccc(Br)cc2)C3)cc1` [Compound 1C], a half-maximal effect (EC50) was put at 2.53 µM.
As for `[2H]C([2H])([2H])C([2H])([2H])n1c2c(c3ccccc31)CCN(C(=O)c1ccc(Cl)cc1)C2` [Compound 1E], the EC50 was determined as 7.83 µM.
`[2H]c1c([2H])c([2H])c(C(=O)N2CCc3c(n(Cc4ccc(F)cc4)c4ccccc34)C2)c([2H])c1[2H]` [Compound 1B] showed an EC50 of 1.5 µM.
Turning to `N#Cc1ccc(Cn2c3c(c4ccccc42)CCN(C(=O)c2ccc(Cl)cc2)C3)cc1` [Compound 1A], the EC50 was 2.52 µM.
For `Nc1ccc(Cn2c3c(c4ccccc42)CCN(C(=O)c2ccc(O)cc2)C3)cc1` [Compound 1, reference compound], the EC50 came out at 0.67 µM.
